{"source": "patent US11344510B2", "about": "“Arylcyclohexylamine derivatives and their use in the treatment of psychiatric disorders” (Gilgamesh Pharmaceuticals, Inc., priority 2019, dated 2022)", "key": {"[1]": {"target": "MK-801 binding site of the N-methyl-D-aspartate receptor (NMDAR)", "assay": "NMDAR radioligand binding with [3H]MK-801, Method A", "set-up": "species or system Wistar rat", "details": "MK-801 site, Method A, Wistar rat brain (minus cerebellum), 5.0 nM [3H]MK-801; read-out: NMDAR Ki ± SEM", "description": "Radioligand Binding—Method A. Affinity of the test compounds for NMDAR was determined in radioligand binding experiments with [^3H]MK-801 by Eurofins Panlabs, Inc., using methods adapted from the literature (Javitt et al. 1987; Reynolds et al. 1989) and under the conditions described in Table 12."}, "mice (forced swim test)": {"system": "mice (forced swim test)", "assay": "Forced swim test in mice, 2-h pre-treatment", "assay_type": "in vivo, CD-1 mice", "details": "s.c.", "description": "Animals. Male CD-1 mice, aged ˜8 weeks (body weight ˜25-30 g), were used in the experiments. Animals were singly housed under controlled temperatures and 12-hour light/dark cycles, with ad libitum food and water. These studies were carried out in strict accordance with the recommendations in the European Convention for the Protection of Vertebrate Animals Used for Experimental and Other Scientific Purposes. All efforts were made to minimize suffering.\nDrugs and Drug Administration. Imipramine hydrochloride was administered intraperitoneally (i.p.) at a dose of 20 mg/kg. Other compounds were tested as the racemates (indicated by “rac” nomenclature) and were administered subcutaneously (s.c.) with doses calculated based on the freebase. Normal saline was used as the vehicle and all compounds were administered at a volume of 5 mL/kg, 2 h before behavioral testing.\nForced Swim Test (FST). Group size was n=10 per treatment, except for vehicle and rac-ketamine groups, which represented n=20 per treatment. Mice were placed individually in a glass cylinder measuring 19 cm wide by 30 cm tall and filled with 24° C. water to a depth of 18 cm. The activity of each mouse was video recorded during each 6-minute session and total immobility time was scored during the last 4 minutes of the session. The water was changed between each mouse to avoid any influence on behavior.\nStatistical Analysis. […]"}, "[2]": {"assay": "Formation of metabolites 11R/11S in RLM (High Activity conditions)", "assay_type": "in vitro ADME, Sprague Dawley rats", "details": "LC-MS/MS", "description": "RLM Stability (High Activity). Pooled RLM from male Sprague Dawley rats (XenoTech R1000, lot #1910100) were used. Microsomal incubations were carried out in 96-well plates in 5 aliquots of 40 μL each (one for each time point). Liver microsomal incubation medium consisted of PBS (100 mM, pH 7.4), MgCl2 (3.3 mM), NADPH (3 mM), glucose-6-phosphate (5.3 mM), and glucose-6-phosphate dehydrogenase (0.67 units/mL), with 1.0 mg of liver microsomal protein per mL. Control incubations were performed by replacing the NADPH-cofactor system with PBS. Test compounds (1 μM, final solvent concentration 1.6%) were incubated with microsomes at 37° C., shaking at 100 rpm. Incubations were performed in duplicate. Five time points over 60 minutes were analyzed. […] Supernatants were analyzed for parent compound remaining using a fit-for-purpose liquid chromatography-tandem mass spectrometry (LC-MS/MS) method, with authentic samples of each analyte used for identity confirmation.\nThis condition was also used for experiments measuring the formation of metabolite 11R from compounds 14R and 88R and formation of metabolite 11S from compounds 14S and 88S. The concentrations of 11R and 11S formed during the incubations were quantified using a fit-for-purpose liquid chromatography-tandem mass spectrometry (LC-MS/MS) method, with authentic samples of each analyte used for calibration and identity confirmation."}, "MK-801 site of NMDAR": {"target": "MK-801 site of NMDAR (Rattus norvegicus, UniProt P35439)", "details": "read-out: NMDAR Ki ± SEM, from Ebert et al. 1997; cited from earlier work"}}, "note": "“Also recorded” adds a separate entry of the source. Where a name gives a salt, the structure may show the parent alone.", "data": [{"smiles": "CNC1(c2ccccc2)CCCCC1=O", "note": "(racemic) [Compound 14rac, 2-(methylamino)-2-phenylcyclohexan-1-one hydrochloride]", "values": [{"measurement": "Ki", "setting": "[1]", "result": 760, "unit": "nM"}, {"measurement": "immobility time in FST", "setting": "mice (forced swim test); 2 h before test, last 4 minutes, relative to vehicle, hydrochloride", "result": "reduced time immobile; also recorded: induced antidepressant-like effects"}, {"measurement": "potency at reducing immobility relative to rac-ketamine", "setting": "mice (forced swim test); 2 h pre-treatment", "result": "at least 30 fold"}]}, {"smiles": "[2H]C([2H])([2H])N[C@@]1(c2ccccc2)CCCCC1=O", "note": "[Compound 88R, (R)-2-((methyl-d3)amino)-2-phenylcyclohexan-1-one]", "values": [{"measurement": "formation of metabolites 11R and 11S compared to non-deuterated counterparts", "setting": "[2]", "result": "attenuated formation; also recorded: decreased formation"}]}, {"smiles": "CNC1(c2ccccc2Cl)CCCCC1=O", "note": "(racemic) [rac-ketamine, racemic ketamine, reference compound]", "values": [{"measurement": "Ki", "setting": "MK-801 site of NMDAR", "result": "530 ± 78", "unit": "nM"}]}]}
